Laboratory results reported in patent publication US20020002171A1, “Materials and methods for killing nematodes and nematode eggs” (priority 2000, published 2002).

Each molecule was assayed on Caenorhabditis elegans (assay: C. elegans L1 nematicidal dose response in 96-well plates, 5 day visual score (Example 2; same procedure for Example 7, Table 3)). Conditions: Follow-up HTS run.
Format: in vivo
Set-up: key to 5 Day Visual Score V1 / 5 Day Visual Score V2 / 5 Day Visual Score V3 / 5 Day Visual Score V4 / 5 Day Visual Score V6 / 5 Day Visual Score V5 / Initial HTS Run Visual Score / Follow-up HTS Run Visual Score: Dead: only stiff L1s (no movement); Dead (L4): worms are dead, but at a later larval stage; majority of worms are L1 (based on size) worms move when plate is tapped; majority of worms are L2 (based on size); majority of worms are L3 (based on size); majority of worms are L4 (based on size); AD: majority of worms are adult; #AD: 5 adult worms or less; B!: sterile (0-25 progeny); B: low broodsize (25-100 progeny); ˜B: moderate broodsize (100-250 progeny); <: reduced broodsize (250-500 progeny); OK: no effect (˜1000+ progeny)
Description: Caenorhabditis elegans adults were grown on Nematode Growth Medium (NGM) until they produced eggs, then the adults were removed.
The eggs were allowed to hatch, and the L1 larvae collected. See The Nematode Caenorhabditis elegans (1988) Cold Spring Harbor Laboratory Press. Using a Matrix Programmable Pipette, the L1s were distributed into 96-well tissue culture plates, 20 L1 in 50 μl NGM per well. Antibiotic/Antimyoticwas added to each well, and 1% by weight E. coli strain HB101. The subject anthelmintic compounds were stored at 5 mM in 100% DMSO. 0.7 μl of compounds 1-31 were added to the left-most column of wells to yield a final concentration of 70 μM in 1.4% DMSO, with 1.4% DMSO only as the control. The compounds were then subjected to 5 more 3-fold dilutions from left to right to yield 6 column concentrations of 70 μM, 23.3 μM, 7.8 μM, 2.6 μM, 0.9 μM, and 0.3 μM. Plates were stored in air-tight Rubbermaid plastic boxes at 20° C. The nematodes had cleared all control wells by day 4, and nematode viability was scored by visual examination under a 100× dissecting microsope on day 5. A visual viability scoring system was used as follows:
Column V1 has a compound concentration of 70 μM with sequential 3-fold dilutions reported in columns V2, V3, V4, V5, and V6, respectively, such that the V6 concentration was 0.3 μM.
The nematicidal activity of anthelmintic Compositions 48-168 were determined in accordance with the procedure outlined in Example 2.

Row | SMILES | Follow-up HTS Run % Run [%] | Follow-up HTS Run mOD [mOD] | Follow-up HTS Run Visual Score
1 | CCN(CC)C(=O)C1CCCN(c2nc(NCc3ccccc3)ns2)C1 (stereo not drawn) [compound 265] | 111 | 178 | –
2 | OCCN(CCO)c1nc(NCc2ccc(C(F)(F)F)cc2)ns1 [compound 254] | 113 | 182 | L2 - Dead L3
3 | Cc1cccc(C)c1N1CCN(c2nsc(N3CC(C)CC(C)C3)n2)CC1 (stereo not drawn) [compound 219] | 74 | 119 | Dead/1AD/B!
4 | CCN(Cc1ccccc1)c1nc(NCc2c(F)cccc2F)ns1 [compound 299] | 115 | 185 | L4
5 | CCCCN(CC)c1nc(N2CCN(c3ncccn3)CC2)ns1 [compound 235] | 127 | 205 | L2 - 1/2 Dead
6 | CCCCCCCCCCNc1nsc(N(CC)Cc2ccccc2)n1 [compound 280] | 122 | 196 | Dead
7 | CCOC(=O)CCN(Cc1ccccc1)c1nc(N2CCN(c3c(C)cccc3C)CC2)ns1 [compound 233] | 93 | 150 | Dead
8 | CCCCCCCCCCNc1nsc(N(CC)C2CCCCC2)n1 [compound 276] | 116 | 187 | Dead

Same assay, conditions: Initial HTS run

Row | SMILES | Initial HTS Run % Run [%] | Initial HTS Run mOD [mOD] | Initial HTS Run Visual Score
9 | CCN(CC)C(=O)C1CCCN(c2nc(NCc3ccccc3)ns2)C1 (stereo not drawn) [compound 265] | 108 | 119 | –
10 | OCCN(CCO)c1nc(NCc2ccc(C(F)(F)F)cc2)ns1 [compound 254] | 105 | 116 | Dead(L3)
11 | Cc1cccc(C)c1N1CCN(c2nsc(N3CC(C)CC(C)C3)n2)CC1 (stereo not drawn) [compound 219] | 90 | 99 | 4AD/B
12 | CCN(Cc1ccccc1)c1nc(NCc2c(F)cccc2F)ns1 [compound 299] | 105 | 116 | –
13 | CCCCN(CC)c1nc(N2CCN(c3ncccn3)CC2)ns1 [compound 235] | 128 | 141 | Dead (L3?)
14 | CCCCCCCCCCNc1nsc(N(CC)Cc2ccccc2)n1 [compound 280] | 144 | 158 | Dead
15 | CCOC(=O)CCN(Cc1ccccc1)c1nc(N2CCN(c3c(C)cccc3C)CC2)ns1 [compound 233] | 113 | 124 | 1AD/B
16 | CCCCCCCCCCNc1nsc(N(CC)C2CCCCC2)n1 [compound 276] | 116 | 128 | Dead

Same assay, conditions: dose response, dilution V1, day 5

Row | SMILES | 5 Day Visual Score V1
17 | OCCN(CCO)c1nc(NCc2ccc(C(F)(F)F)cc2)ns1 [compound 254] | Dead(L3)
18 | Cc1cccc(C)c1N1CCN(c2nsc(N3CC(C)CC(C)C3)n2)CC1 (stereo not drawn) [compound 219] | Dead
19 | CCN(Cc1ccccc1)c1nc(NCc2c(F)cccc2F)ns1 [compound 299] | L4#AD/B
20 | CCCCN(CC)c1nc(N2CCN(c3ncccn3)CC2)ns1 [compound 235] | Dead
21 | CCCCCCCCCCNc1nsc(N(CC)Cc2ccccc2)n1 [compound 280] | Dead
22 | CCOC(=O)CCN(Cc1ccccc1)c1nc(N2CCN(c3c(C)cccc3C)CC2)ns1 [compound 233] | Dead
23 | CCCCCCCCCCNc1nsc(N(CC)C2CCCCC2)n1 [compound 276] | Dead

Same assay, conditions: dose response, dilution V2, day 5

Row | SMILES | 5 Day Visual Score V2
24 | CCN(CC)C(=O)C1CCCN(c2nc(NCc3ccccc3)ns2)C1 (stereo not drawn) [compound 265] | OK (no effect (˜1000+ progeny))
25 | CCN(Cc1ccccc1)c1nc(NCc2c(F)cccc2F)ns1 [compound 299] | ˜B (moderate broodsize (100-250 progeny))
26 | CCCCN(CC)c1nc(N2CCN(c3ncccn3)CC2)ns1 [compound 235] | #AD/˜B
27 | CCCCCCCCCCNc1nsc(N(CC)Cc2ccccc2)n1 [compound 280] | Dead
28 | CCCCCCCCCCNc1nsc(N(CC)C2CCCCC2)n1 [compound 276] | Dead

Same assay, conditions: dose response, dilution V3, day 5

Row | SMILES | 5 Day Visual Score V3
29 | CCN(CC)C(=O)C1CCCN(c2nc(NCc3ccccc3)ns2)C1 (stereo not drawn) [compound 265] | OK (no effect (˜1000+ progeny))
30 | OCCN(CCO)c1nc(NCc2ccc(C(F)(F)F)cc2)ns1 [compound 254] | < (reduced broodsize (250-500 progeny))
31 | CCN(Cc1ccccc1)c1nc(NCc2c(F)cccc2F)ns1 [compound 299] | ˜B (moderate broodsize (100-250 progeny))
32 | CCCCN(CC)c1nc(N2CCN(c3ncccn3)CC2)ns1 [compound 235] | OK (no effect (˜1000+ progeny))
33 | CCCCCCCCCCNc1nsc(N(CC)Cc2ccccc2)n1 [compound 280] | ˜B (moderate broodsize (100-250 progeny))
34 | CCOC(=O)CCN(Cc1ccccc1)c1nc(N2CCN(c3c(C)cccc3C)CC2)ns1 [compound 233] | ˜B (moderate broodsize (100-250 progeny))

Same assay, conditions: dose response, dilution V4, day 5

Row | SMILES | 5 Day Visual Score V4
35 | CCN(CC)C(=O)C1CCCN(c2nc(NCc3ccccc3)ns2)C1 (stereo not drawn) [compound 265] | OK (no effect (˜1000+ progeny))
36 | OCCN(CCO)c1nc(NCc2ccc(C(F)(F)F)cc2)ns1 [compound 254] | OK (no effect (˜1000+ progeny))
37 | Cc1cccc(C)c1N1CCN(c2nsc(N3CC(C)CC(C)C3)n2)CC1 (stereo not drawn) [compound 219] | OK (no effect (˜1000+ progeny))
38 | CCN(Cc1ccccc1)c1nc(NCc2c(F)cccc2F)ns1 [compound 299] | OK (no effect (˜1000+ progeny))
39 | CCCCN(CC)c1nc(N2CCN(c3ncccn3)CC2)ns1 [compound 235] | OK (no effect (˜1000+ progeny))
40 | CCCCCCCCCCNc1nsc(N(CC)Cc2ccccc2)n1 [compound 280] | OK (no effect (˜1000+ progeny))
41 | CCOC(=O)CCN(Cc1ccccc1)c1nc(N2CCN(c3c(C)cccc3C)CC2)ns1 [compound 233] | OK (no effect (˜1000+ progeny))
42 | CCCCCCCCCCNc1nsc(N(CC)C2CCCCC2)n1 [compound 276] | OK (no effect (˜1000+ progeny))

Same assay, conditions: dose response, dilution V5, day 5

Row | SMILES | 5 Day Visual Score V5
43 | CCN(CC)C(=O)C1CCCN(c2nc(NCc3ccccc3)ns2)C1 (stereo not drawn) [compound 265] | OK (no effect (˜1000+ progeny))
44 | OCCN(CCO)c1nc(NCc2ccc(C(F)(F)F)cc2)ns1 [compound 254] | OK (no effect (˜1000+ progeny))
45 | Cc1cccc(C)c1N1CCN(c2nsc(N3CC(C)CC(C)C3)n2)CC1 (stereo not drawn) [compound 219] | OK (no effect (˜1000+ progeny))
46 | CCN(Cc1ccccc1)c1nc(NCc2c(F)cccc2F)ns1 [compound 299] | OK (no effect (˜1000+ progeny))
47 | CCCCN(CC)c1nc(N2CCN(c3ncccn3)CC2)ns1 [compound 235] | OK (no effect (˜1000+ progeny))
48 | CCCCCCCCCCNc1nsc(N(CC)Cc2ccccc2)n1 [compound 280] | OK (no effect (˜1000+ progeny))
49 | CCOC(=O)CCN(Cc1ccccc1)c1nc(N2CCN(c3c(C)cccc3C)CC2)ns1 [compound 233] | OK (no effect (˜1000+ progeny))
50 | CCCCCCCCCCNc1nsc(N(CC)C2CCCCC2)n1 [compound 276] | OK (no effect (˜1000+ progeny))

Same assay, conditions: dose response, dilution V6, day 5

Row | SMILES | 5 Day Visual Score V6
51 | CCN(CC)C(=O)C1CCCN(c2nc(NCc3ccccc3)ns2)C1 (stereo not drawn) [compound 265] | OK (no effect (˜1000+ progeny))
52 | OCCN(CCO)c1nc(NCc2ccc(C(F)(F)F)cc2)ns1 [compound 254] | OK (no effect (˜1000+ progeny))
53 | Cc1cccc(C)c1N1CCN(c2nsc(N3CC(C)CC(C)C3)n2)CC1 (stereo not drawn) [compound 219] | OK (no effect (˜1000+ progeny))
54 | CCN(Cc1ccccc1)c1nc(NCc2c(F)cccc2F)ns1 [compound 299] | OK (no effect (˜1000+ progeny))
55 | CCCCN(CC)c1nc(N2CCN(c3ncccn3)CC2)ns1 [compound 235] | OK (no effect (˜1000+ progeny))
56 | CCCCCCCCCCNc1nsc(N(CC)Cc2ccccc2)n1 [compound 280] | OK (no effect (˜1000+ progeny))
57 | CCOC(=O)CCN(Cc1ccccc1)c1nc(N2CCN(c3c(C)cccc3C)CC2)ns1 [compound 233] | OK (no effect (˜1000+ progeny))
58 | CCCCCCCCCCNc1nsc(N(CC)C2CCCCC2)n1 [compound 276] | OK (no effect (˜1000+ progeny))
